Measured values published in US20050101542A1, “Combination therapy for controlling appetites” (Regents of the University of California, priority 2002, published 2005).
“Also recorded” adds a separate entry of the source. Like-named read-outs stand apart in the source and are kept apart here.

What was measured:
human PPARα = biological target: T1, human PPARα (Homo sapiens, UniProt Q07869); assay: GAL4 chimeric receptor transactivation assay in HeLa cells, PPARα; format: cell-based; settings: for PPARα activation: HeLa transactivation assay
T1 construct: expressed in transfected cells; host or cells: HeLa (clonal reporter line HLR, stably transfected with pFA-PPARα)
T1 sequence (Q07869 239-466 limits assumed): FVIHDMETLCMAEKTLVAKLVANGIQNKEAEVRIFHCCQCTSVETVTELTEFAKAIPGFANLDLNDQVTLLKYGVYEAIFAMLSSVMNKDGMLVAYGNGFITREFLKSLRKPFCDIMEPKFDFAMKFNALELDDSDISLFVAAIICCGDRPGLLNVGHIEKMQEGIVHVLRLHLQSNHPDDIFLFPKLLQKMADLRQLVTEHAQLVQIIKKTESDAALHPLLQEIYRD
Procedure: Eighteen hours following transfection, the culture media was replaced with supplemented DMEM containing hygromycin (100 μg-ml^−1, Calbiochem). After 4 weeks in culture, the surviving clones were isolated and analyzed by luciferase assay. […] The cells were cultured in supplemented DMEM containing hygromycin and G418. For transactivation assays, cells were seeded in 6-well plates (50,000 cells per well) and incubated for 7 hours in supplemented DMEM containing hygromycin and G418, plus appropriate concentrations of test compounds. Dual-luciferase reporter assay system (Promega) and an MLX Microtiter® plate luminometer (Dynex) were used to determine luciferase activity in cell lysates.

[1] = Food intake in capsaicin-treated (sensory deafferented) rats, Example 2; format: in vivo, rat; settings: OEA 10 mg per kg i.p.
Procedure: FAE were dissolved in dimethylsulphoxide (DMSO) and administered in 70% DMSO in sterile saline (acute treatments) Or 5% Tween 80/5% propylenglycol in sterile saline (subchronic treatments) (1 ml per kg, i.p.). Capsaicin was administered in 10% Tween 80/10% ethanol/80% saline; SR141716A, SR144528, CCK-8 and CP-93129 in 5% Tween 80/5% propylenglycol/90% saline (1 ml per kg, i.p.).

[2] = Capsaicin sensory deafferentation and feeding, Example 8; format: in vivo, rat; settings: CCK-8 10 μg/kg, CP 93129 1, WIN 55,212-2 2, anandamide 2, SR141716A 3 mg/kg, i.p.
Procedure: Capsaicin was administered subcutaneously (12.5 mg/ml, Kaneko, et al., Am. J. Physiol., 275:G1056-G1062 (1998)) in rats anesthetized with ethyl ether. The total dose of capsaicin (125 mg/kg) was divided into three injections (25 mg/kg in the morning and 50 mg/kg in the afternoon of the first day, 50 mg/kg on the 2nd day). Control rats received vehicle injections. […] Water intake (in ml/4 hr) was: vehicle 13.6±1.4; capsaicin rats 24.0±1.9, P<0.01 (n=12).
The can was retired and intake was recorded.

[3] = Acute feeding experiments in free-feeding mice (C57BL/6J, wild-type, PPARα-null); format: in vivo, mouse; settings: for feeding in PPARα-deficient mice: OEA 10, Wy-14643 40, d-fenfluramine 4 mg-kg^−1, CCK-8 25 μg-kg^−1, i.p.; for food intake in C57BL/6J mice: i.p., Wy-14643 40, GW7647 20, clofibrate 25-100, GW501516 1-10, ciglitazone 15 mg kg^−1; for meal pattern analysis (eating latency, meal size, post-meal interval): C57BL/6J mice
Procedure: Acute experiments. Drugs or appropriate vehicles (saline, for CCK-8 and d-fenfluramine; dimethylsulfoxide/saline, 70/30, for all other agents; 4 ml-kg^−1; i.p.) were administered at 5:00-5:30 PM to free-feeding mice, which were habituated to the experimental setting.

[4] = Food intake studies in food-deprived or partially satiated rats (i.p. or i.c.v.), Example 8; settings: for food intake in partially satiated rats, systemic (i.p.) administration: 24 h food-deprived, allowed to eat 60 min before drug; for food intake in 24 h food-deprived rats, systemic (i.p.) administration: anandamide or WIN 55,212-2 0.1-2 mg/kg
Procedure: (§4) Drugs were administered by i.p. injection 15 min prior to food presentation in a volume of 1 ml/kg. For i.c.v. administration the obturator was removed from the guide cannula and an 8-mm injector (30-gauge stainless steel tubing) that was connected to 70 cm of calibrated polyethylene-10 tubing was lowered into the ventricle. The tubing was then raised until flow began and 5 μl of drug solution were infused over a 30-60 s period. The injector was left in the guide cannula for additional 30 s and then removed. The stylet was immediately replaced. Animals were tested 5 min after injections. The i.c.v. cannula placements were evaluated after each experiment by dye injection. Only those rats with proper i.c.v. placements were included in the data analysis.
(§5) The animals were then food-deprived for 24 h, with free access to water. 15 min after drug administration, the animals were returned to their home cage, where a can with a measured amount of food (usually 30-40 g) a bottle containing 250 ml of fresh water were placed. Food pellets and food spillage were weighed at 60,120 and 240 min after starting the test, and the amount of food eaten was recorded. At the end of the test, the amount of water consumed was also measured. For partial satiation of animals, 24 h food-deprived rats were allowed to eat from the can during 1 h. The can was retired and intake was recorded. 15 min after drug injections, the food was again presented, and the amount consumed was recorded hourly for the following 4 h.

[5] = Food intake in vagotomized or capsaicin-treated rats, Example 3; format: in vivo, rat; settings: for food intake after vagotomy or capsaicin treatment: rats, OEA 10, Wy-14643 40 mg kg^−1 i.p.; for food intake 30 min / food intake 60 min / food intake 120 min / food intake 240 min: 24-h food-deprived, Wy-14643 40 mg kg^−1 i.p.
Soleus muscle = assay: [14C]oleate oxidation to CO2 in soleus muscle; format: cell-based, rat
Text: This example illustrates the effect of OEA on fat metabolism and methods for studying the same. Oleoylethanolamide (OEA) decreases body weight not only by suppressing appetite, but also by possibly enhancing body fat catabolism. The effects of OEA on fatty acid oxidation in major body-fat burning tissues (soleus muscle, liver, cultured cardiac myocytes and astrocytes) was examined. […] In addition, OEA induces a significant mobilization of triacylglycerol stores from primary white adipose tissue cells. Table 4 details the methods and effects of OEA on fatty acid oxidation in these cells. Structure-activity relationship experiments provide evidence that the effect of OEA on skeletal muscle fatty acid oxidation is specific (FIG. 8).

[6] = Acute food intake in 24-h food-deprived rats, i.p. dosing; format: in vivo, rat; settings: 24-h food-deprived rats, i.p.
Procedure: Feeding experiments. Acute experiments. Food intake was measured in 24-h food-deprived rats (Navarro, et al., J. Neurochem., 67:1982-1991 (1996)), administering drugs 15 min before food presentation. Subchronic experiments. Ad libitum fed rats received vehicle injections for three days. On day four, the animals were divided in two equal groups and gave them daily injections of vehicle or OEA (5 mg per kg at 1900 h) for 7 consecutive days, while measuring body weight, food intake and water intake.
The effects of systemically administered OEA or an OEA-like compound or OEA-like modulator on food intake in rats can be assessed using a 24 h fast. […] To define the selectivity of this response, various OEA analogs were evaluated for their ability to produce hypophagia.

iNOS = assay: Transrepression of iNOS expression in mouse jejunum; format: in vivo; settings: jejunum of C57BL/6J mice; OEA or oleic acid 10, Wy-14643 30 mg kg^−1 i.p.
Procedure: (§1) Tissues were stored in RnaLater™ (Ambion), extracted total RNA with TRIzol™ (Invitrogen) and quantified it with Ribogreen™ (Molecular Probes). cDNA was synthesized by using SuperscriptII RNase H-reverse transcriptase (Invitrogen).
(§2) Reverse transcription of total RNA (2 μg) was performed using Oligo(dT)12-18 primer (0.2 μg) for 50 min at 42° C. Real Time Quantitative (RTQ) PCR was conducted using an ABI PRISM 7700 sequence detection system (Applied Biosystems). Primer/probe sets were designed using the Primer Express™ software and gene sequences available from the Genebank™ database. Primers and fluorogenic probes were synthesized by TIB (Adelphia). The primer/probe sequences for the mouse genes were:
(§3) RNA levels were normalized by using glyceraldehyde 3-phosphate dehydrogenase (GAPDH) as an internal standard. mRNA levels were measured by generating six-point serial standard curves using mouse total RNA. Estimates of relative mRNA abundance (in arbitrary units) were made by using the CT value (Schmittgen et al., 2000). Relative quantifications of RNAs of interest were made by using the 2^ΔCT formula, in which ΔCT was calculated by subtracting the CT value for GAPDH from the CT value for the gene of interest. This formula was validated for each primer/probe set by using six-point serial standard curves.

PPAR-α-regulated genes = assay: Real time quantitative PCR of gene expression in mouse intestine and liver; format: in vivo; settings: for expression of PPAR-α-regulated genes (PPAR-α, FAT/CD36, FATP1): jejunum of wild-type mice, OEA or oleic acid 10, Wy-14643 30 mg kg^−1 i.p.
Procedure: as §1, §2, §3

Open field test = format: in vivo, rat
Procedure: Rats were habituated to the field for 10 min the day before testing. On the experimental day, the animals were placed in the center of the field and locomotor activity (number of lines crossed) and exploratory behavior (number of rearings and time spent in the center of the field) were scored for 5 min. All the experiments were performed 60 min after drug injections, and behavior was scored by trained observers blind to experimental conditions.

[7] = rat, in vivo
Procedure: as §4, §5

Compound: CCCCCCCCCCCCCCCCCC(=O)NCCO [stearylethanolamide]
- PPARα activation (human PPARα): did not elicit a response

Compound: CCK-8
- feeding response in capsaicin-treated rats [1]: failed to respond
- effect of capsaicin treatment on the drug's feeding response [2]: abolished the anorexic response; also recorded: abolished the anorexic effect
- feeding in PPARα-deficient mice [3]: responded normally

Compound: CCOC(=O)C(C)(C)Oc1ccc(Cl)cc1 [clofibrate, 2-(4-chlorophenoxy)-2-methylpropanoic acid, ethyl ester]
- food intake in C57BL/6J mice [3]: did not

Compound: Cc1c(C(=O)c2cccc3ccccc23)c2cccc3c2n1[C@H](CN1CCOCC1)CO3 [WIN 55,212-2]
- effect of capsaicin treatment on the drug's feeding response [2]: loss of the hyperphagic effects; also recorded: did not produce hyperphagia
- motor effect at the highest central dose ([4]; 10 μg i.c.v.): motor impairment
- immobility ([4]; 10 mg/kg i.p.): profound immobility
- food intake in partially satiated rats, systemic (i.p.) administration [4]: significant and prolonged hyperphagia; also recorded: promoted hyperphagia
- food intake in 24 h food-deprived rats, systemic (i.p.) administration [4]: no effect
- food intake after central (i.c.v.) administration [4]: no effect on feeding

Compound: CCN[C@@H](C)Cc1cccc(C(F)(F)F)c1 [d-fenfluramine]
- food intake after vagotomy or capsaicin treatment [5]: not
- feeding in PPARα-deficient mice [3]: responded normally

Compound: CCCCCCCCCCCCCC(=O)NCCO [myristylethanolamide]
- PPARα activation (human PPARα): ineffective

Compound: CCCCCCCCCCCCCCCC(=O)NCCO [Palmitoylethanolamide, palmitoylethanolamide]
- mimicry of the OEA effect on skeletal muscle fatty acid oxidation (Soleus muscle): only partially
- food intake (hypophagia) [6]: active but significantly less potent than OEA

Compound: O=c1ccc2[nH]cc(C3=CCNCC3)c2[nH]1 [CP-93129]
- feeding response in capsaicin-treated rats [1]: responded normally
- effect of capsaicin treatment on the drug's feeding response [2]: not

Compound: Cc1cccc(Nc2cc(Cl)nc(SCC(=O)O)n2)c1C [Wy-14643]
- food intake 30 min ([5]; capsaicin-treated rats): 2.2 ± 1.2
- food intake 60 min ([5]; capsaicin-treated rats): 3.7 ± 1.6
- food intake 120 min ([5]; capsaicin-treated rats): 4.9 ± 1.5
- food intake 240 min ([5]; capsaicin-treated rats): 7.8 ± 1.9
- food intake 30 min ([5]; control rats): 2.3 ± 1.3
- food intake 60 min ([5]; control rats): 3.6 ± 1.2
- food intake 120 min ([5]; control rats): 5.8 ± 1.3
- food intake 240 min ([5]; control rats): 6.4 ± 1.8
- food intake after vagotomy or capsaicin treatment [5]: prevented the hypophagic effects
- iNOS expression (iNOS): significantly decreased
- meal pattern analysis (eating latency, meal size, post-meal interval) [3]: selective prolongation of eating latency
- feeding in PPARα-deficient mice [3]: did not respond
- food intake in C57BL/6J mice [3]: inhibited food intake
- expression of PPAR-α-regulated genes (PPAR-α, FAT/CD36, FATP1) (PPAR-α-regulated genes): mimicked the effects of OEA
- gene expression in mice deficient in PPAR-α (PPAR-α-regulated genes; jejunum, OEA 10, Wy-14643 30 mg kg^−1 i.p.): did not stimulate gene expression

Compound: CCCCCCCC/C=C\CCCCCCCC(=O)O [oleic acid]
- mimicry of the OEA effect on skeletal muscle fatty acid oxidation (Soleus muscle): not
- EC50 (human PPARα): 10.3 ± 0.21 µM
- iNOS expression (iNOS): ineffective
- food intake (hypophagia) [6]: no effect
- expression of PPAR-α-regulated genes (PPAR-α, FAT/CD36, FATP1) (PPAR-α-regulated genes): not

Compound: CC(C)(Sc1ccc(CCN(CCCCC2CCCCC2)C(=O)NC2CCCCC2)cc1)C(=O)O [GW7647, 2-(4-{2-[3-Cyclohexyl-1-(4-cyclohexyl-butyl)-ureido]-ethyl}-phenylsulfanyl)-2-methyl-propionic acid]
- meal pattern analysis (eating latency, meal size, post-meal interval) [3]: selective prolongation of eating latency
- food intake in C57BL/6J mice [3]: inhibited food intake

Compound: Cc1c(C(=O)NN2CCCCC2)nn(-c2ccc(Cl)cc2Cl)c1-c1ccc(Cl)cc1 [SR141716A, N-piperidino-5-(4-chlorophenyl)-1-(2,4-dichlorophenyl)-4-methylpyrazole-3-carboxamide]
- effect of capsaicin treatment on the drug's feeding response [2]: loss and abolishes the reduction of food intake
- food intake in partially satiated rats, systemic (i.p.) administration [4]: dose-dependent reduction of food intake
- food intake in 24 h food-deprived rats, systemic (i.p.) administration [4]: dose-dependent reduction of food intake; also recorded: reduced food intake
- food intake after central (i.c.v.) administration [4]: no effect; also recorded: did not affect food intake
- rearing frequency in the open field (Open field test; i.c.v. SR141716A 10 μg, i.c.v. vehicle 16.6±3.1): 4.9±1.1 number of events per 5 min
- rearing frequency in the open field (Open field test; i.p. SR141716A 3 mg/kg, i.p. vehicle 17.9±2.3): 9.4±2.0 number of events per 5 min
- exploratory behavior in the open field (Open field test; irrespective of the administration route): reduced exploratory behavior

Compound: Cc1cc(SCc2sc(-c3ccc(C(F)(F)F)cc3)nc2C)ccc1OCC(=O)O [GW501516, [2-Methyl-4-[4-methyl-2-(4-trifluoromethyl-phenyl)-thiazol-5-ylmethylsulfanyl]-phenoxy}-acetic acid]
- food intake in C57BL/6J mice [3]: did not affect feeding; also recorded: Lack of effect

Compound: CCCCC/C=C\C/C=C\C/C=C\C/C=C\CCCC(=O)NCCO [anandamide, arachidonylethanolamide]
- mimicry of the OEA effect on skeletal muscle fatty acid oxidation (Soleus muscle): not
- PPARα activation (human PPARα): ineffective
- motor effect at the highest central dose [7]: motor impairment
- effect of capsaicin treatment on the drug's feeding response [2]: loss of the hyperphagic effects
- food intake (hypophagia) [6]: no effect
- food intake in partially satiated rats, systemic (i.p.) administration [4]: significant and prolonged hyperphagia
- food intake in partially satiated rats, systemic (i.p.) administration ([4]; listed as Anandamide): elicited hyperphagia
- food intake in 24 h food-deprived rats, systemic (i.p.) administration [4]: no effect
- food intake after central (i.c.v.) administration [4]: no effect on feeding
- food intake after central (i.c.v.) administration ([4]; listed as Anandamide): no effect
